Source: ChEMBL document CHEMBL1201862, “PubChem BioAssay data set” (2004)
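Dose response: 5 concentrations. Exposure: 48 h. Format: 96-well plates. Endpoint: linear interpolation; highest concentration if not reached. GI50: concentration for 50% inhibition of growth.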 Active and inactive are the calls of the source. Cut-off read from the data, not from the text of the source: active = GI50 up to about 1.1 µM and inactive = higher.

Key:
Experiment in all cases: NCI anticancer screen, dose series, 48 h
[1] = test system: 786-0
[2] = test system: A498
[3] = test system: A549
[4] = test system: ACHN
[5] = test system: BT-549
[6] = test system: CAKI-1
[7] = test system: CCRF-CEM
[8] = test system: COLO 205
[9] = test system: DU-145
[10] = test system: EKVX
[11] = test system: HCC 2998
[12] = test system: HCT-116
[13] = test system: HCT-15
[14] = test system: HL-60
[15] = test system: HOP-62
[16] = test system: HOP-92
[17] = test system: HT-29
[18] = test system: Hs-578T
[19] = test system: IGROV-1
[20] = test system: K562
[21] = test system: KM12
[22] = test system: LOX IMVI
[23] = test system: M14
[24] = test system: MCF7
[25] = test system: MDA-MB-231
[26] = test system: MDA-MB-435
[27] = test system: MDA-N
[28] = test system: MOLT-4
[29] = test system: Malme-3M
[30] = test system: NCI-H226
[31] = test system: NCI-H23
[32] = test system: NCI-H460
[33] = test system: NCI-H522
[34] = test system: NCI/ADR-RES
[35] = test system: OVCAR-3
[36] = test system: OVCAR-4
[37] = test system: OVCAR-5
[38] = test system: OVCAR-8
[39] = test system: PC-3
[40] = test system: RPMI-8226
[41] = test system: RXF 393
[42] = test system: SF-268
[43] = test system: SF-295
[44] = test system: SF-539
[45] = test system: SK-MEL-28
[46] = test system: SK-MEL-5
[47] = test system: SK-OV-3
[48] = test system: SN12C
[49] = test system: SNB-19
[50] = test system: SNB-75
[51] = test system: SR
[52] = test system: SW-620
[53] = test system: T47D
[54] = test system: TK-10
[55] = test system: U-251
[56] = test system: UACC-257
[57] = test system: UACC-62
[58] = test system: UO-31
[59] = test system: SK-MEL-2

Measured: GI50

CN(C)Cc1cc(/N=N/c2ccccc2Cl)ccc1O
20.1 µM: [13]
inactive: [1] 15.5 µM | [2] 12.7 µM | [3] 9.12 µM | [4] 12.1 µM | [5] 17 µM | [6] 15.1 µM | [7] 17.4 µM | [8] 13.4 µM | [9] 23.5 µM | [10] 49.3 µM | [11] 13.5 µM | [12] 28.1 µM | [14] 10.8 µM | [15] 10.7 µM | [16] 17.1 µM | [17] 14.2 µM | [18] 16.7 µM | [19] 25.8 µM | [20] 16.7 µM | [21] 25.9 µM | [22] 12.6 µM | [23] 19.3 µM | [24] 16.8 µM | [25] 18.2 µM | [26] 17.7 µM | [27] 17.5 µM | [28] 5.48 µM | [29] 12.6 µM | [30] 16.1 µM | [31] 24.7 µM | [32] 5.98 µM | [33] 10.6 µM | [34] 25.4 µM | [35] 18 µM | [36] 52.6 µM | [37] 22.9 µM | [38] 6.05 µM | [39] 27.5 µM | [40] 23.7 µM | [41] 20.3 µM | [42] 25.1 µM | [43] 16.6 µM | [44] 24.3 µM | [45] 16.9 µM | [46] 11.9 µM | [47] 39.2 µM | [48] 25.6 µM | [49] 32.2 µM | [50] 18.7 µM | [51] 26.5 µM | [52] 13.3 µM | [53] 17.7 µM | [54] 22.1 µM | [55] 23.7 µM | [56] 21.1 µM | [57] 18.6 µM | [58] 12.9 µM

CCC1(c2ccccc2)C(=O)N=C(c2ccccc2)N1CCc1ccccc1 (centres undefined)
> 100 µM: [13]
inactive: [1] > 100 µM | [2] > 100 µM | [3] > 100 µM | [4] > 100 µM | [5] > 100 µM | [6] > 100 µM | [7] > 100 µM | [8] > 100 µM | [9] > 100 µM | [10] > 100 µM | [11] > 100 µM | [12] > 100 µM | [14] > 100 µM | [15] > 100 µM | [16] > 100 µM | [17] > 100 µM | [18] > 100 µM | [19] > 100 µM | [20] > 100 µM | [21] > 100 µM | [22] > 100 µM | [23] > 100 µM | [24] > 100 µM | [25] > 100 µM | [26] > 100 µM | [27] > 100 µM | [28] > 100 µM | [29] > 100 µM | [30] > 100 µM | [31] > 100 µM | [33] > 100 µM | [34] > 100 µM | [35] > 100 µM | [36] > 100 µM | [37] > 100 µM | [38] > 100 µM | [39] > 100 µM | [40] > 100 µM | [41] > 100 µM | [42] > 100 µM | [43] > 100 µM | [44] > 100 µM | [45] > 100 µM | [59] > 100 µM | [46] > 100 µM | [47] > 100 µM | [48] > 100 µM | [49] > 100 µM | [50] > 100 µM | [51] > 100 µM | [52] > 100 µM | [53] > 100 µM | [54] > 100 µM | [55] > 100 µM | [56] > 100 µM | [57] > 100 µM | [58] > 100 µM

CCOC(=O)C1=C(C)N(C)C(=S)NC1c1cccc(O)c1 (centres undefined)
inactive: [1] 37.9 µM | [2] 24.7 µM | [3] 36.6 µM | [4] 71 µM | [5] 32.9 µM | [6] 56.6 µM | [7] 21.4 µM | [8] 31.8 µM | [9] 57.3 µM | [10] 24.1 µM | [11] 34 µM | [12] 25.6 µM | [14] 17.8 µM | [15] 77.4 µM | [16] 22.9 µM | [17] 38.9 µM | [18] 46.7 µM | [19] 21.1 µM | [20] 19.7 µM | [21] 29 µM | [22] 70.3 µM | [23] 29.4 µM | [24] 29.6 µM | [25] 46.6 µM | [26] 12.5 µM | [27] 14.6 µM | [28] 37.8 µM | [30] 47.9 µM | [31] 26.4 µM | [32] 38.2 µM | [33] 25.2 µM | [34] 18.7 µM | [35] 36.1 µM | [36] 36.3 µM | [37] 64.1 µM | [38] 32.6 µM | [39] 38.5 µM | [40] 18.7 µM | [41] 24.3 µM | [42] 62.5 µM | [43] 25.9 µM | [44] 53.2 µM | [45] 49.1 µM | [59] 34.3 µM | [46] 18.5 µM | [47] 36.4 µM | [48] 31.8 µM | [49] 54.3 µM | [50] 24.7 µM | [51] 16.9 µM | [52] 37.5 µM | [53] 18.7 µM | [54] > 100 µM | [55] 34.8 µM | [56] 43.3 µM | [57] 63.7 µM | [58] 81.5 µM
30.3 µM: [13]
